Reference: ChEMBL document CHEMBL4814018, “Rationally designed TNF-α inhibitors: Identification of promising cytotoxic agents” (Bioorg Med Chem Lett, 2021)
pIC50: −log10 of the molar value. Calls of active or inactive are those of the source. No cut-off for these calls is given here.

Columns and labels:
[1] = system: NCI-H226; assay: Growth inhibition of human NCI-H226 cells incubated for 48 hrs by sulforhodamine B assay; type: functional
[2] = system: MDA-MB-468; assay: Growth inhibition of human MDA-MB-468 cells incubated for 48 hrs by sulforhodamine B assay; type: functional
[3] = system: OVCAR-4; assay: Growth inhibition of human OVCAR-4 cells at 10 uM incubated for 48 hrs by sulforhodamine B assay relative to control; type: functional; details: read-out: GI
[4] = system: SK-MEL-2; assay: Growth inhibition of human SK-MEL-2 cells at 10 uM incubated for 48 hrs by sulforhodamine B assay relative to control; type: functional; details: read-out: GI
[5] = system: BV-2; assay: Antiinflammatory activity against mouse BV2 cells assessed as reduction in LPS-induced IL6 production at 1 uM by enzyme immunoassay; type: functional, cell-based
[6] = system: SW-620; assay: Growth inhibition of human SW-620 cells at 10 uM incubated for 48 hrs by sulforhodamine B assay relative to control; type: functional; details: read-out: GI
[7] = system: MDA-MB-468; assay: Growth inhibition of human MDA-MB-468 cells at 10 uM incubated for 48 hrs by sulforhodamine B assay relative to control; type: functional; details: read-out: GI
[8] = system: T47D; assay: Growth inhibition of human T47D cells at 10 uM incubated for 48 hrs by sulforhodamine B assay relative to control; type: functional; details: read-out: GI
[9] = system: UACC-62; assay: Growth inhibition of human UACC-62 cells incubated for 48 hrs by sulforhodamine B assay; type: functional
[10] = system: RPMI-8226; assay: Growth inhibition of human RPMI8226 cells at 10 uM incubated for 48 hrs by sulforhodamine B assay relative to control; type: functional; details: read-out: GI
[11] = system: SK-MEL-2; assay: Growth inhibition of human SK-MEL-2 cells incubated for 48 hrs by sulforhodamine B assay; type: functional
[12] = system: SF-295; assay: Growth inhibition of human SF-295 cells incubated for 48 hrs by sulforhodamine B assay; type: functional
[13] = system: MCF7; assay: Growth inhibition of human MCF7 cells incubated for 48 hrs by sulforhodamine B assay; type: functional
[14] = system: BV-2; assay: Cytotoxicity against mouse BV2 cells incubated for 48 hrs by MTT assay; type: cell-based; details: BV-2, 48 h
[15] = system: CAKI-1; assay: Growth inhibition of human CAKI-1 cells incubated for 48 hrs by sulforhodamine B assay; type: functional
[16] = system: A498; assay: Growth inhibition of human A498 cells incubated for 48 hrs by sulforhodamine B assay; type: functional
[17] = system: IGROV-1; assay: Growth inhibition of human IGROV-1 cells incubated for 48 hrs by sulforhodamine B assay; type: functional
[18] = system: T47D; assay: Growth inhibition of human T47D cells incubated for 48 hrs by sulforhodamine B assay; type: functional
[19] = system: SR; assay: Growth inhibition of human SR cells at 10 uM incubated for 48 hrs by sulforhodamine B assay relative to control; type: functional; details: read-out: GI
[20] = system: CAKI-1; assay: Growth inhibition of human CAKI-1 cells at 10 uM incubated for 48 hrs by sulforhodamine B assay relative to control; type: functional; details: read-out: GI
[21] = system: UACC-62; assay: Growth inhibition of human UACC-62 cells at 10 uM incubated for 48 hrs by sulforhodamine B assay relative to control; type: functional; details: read-out: GI
[22] = system: K562; assay: Growth inhibition of human K562 cells at 10 uM incubated for 48 hrs by sulforhodamine B assay relative to control; type: functional; details: read-out: GI
[23] = system: SK-OV-3; assay: Growth inhibition of human SK-OV-3 cells incubated for 48 hrs by sulforhodamine B assay; type: functional
[24] = system: OVCAR-5; assay: Growth inhibition of human OVCAR-5 cells incubated for 48 hrs by sulforhodamine B assay; type: functional
[25] = system: HOP-92; assay: Growth inhibition of human HOP-92 cells at 10 uM incubated for 48 hrs by sulforhodamine B assay relative to control; type: functional; details: read-out: GI
[26] = system: MCF7; assay: Growth inhibition of human MCF7 cells at 10 uM incubated for 48 hrs by sulforhodamine B assay relative to control; type: functional; details: read-out: GI
[27] = system: BV-2; assay: Antiinflammatory activity against mouse BV2 cells assessed as decrease in LPS-induced NO production at 1 to 5 uM pretreated with compound followed by LPS stimulation incubated for 4 to 48 hrs by enzyme immunoassay; type: functional, cell-based; details: dose 1-5 µM, time 4-48 hrs
[28] = system: OVCAR-3; assay: Growth inhibition of human OVCAR-3 cells incubated for 48 hrs by sulforhodamine B assay; type: functional
[29] = system: A498; assay: Growth inhibition of human A498 cells at 10 uM incubated for 48 hrs by sulforhodamine B assay relative to control; type: functional; details: read-out: GI
[30] = system: NCI-H460; assay: Growth inhibition of human NCI-H460 cells at 10 uM incubated for 48 hrs by sulforhodamine B assay relative to control; type: functional; details: read-out: GI
[31] = system: MDA-MB-231; assay: Growth inhibition of human MDA-MB-231 cells incubated for 48 hrs by sulforhodamine B assay; type: functional
[32] = system: HCT-116; assay: Growth inhibition of human HCT-116 cells at 10 uM incubated for 48 hrs by sulforhodamine B assay relative to control; type: functional; details: read-out: GI
[33] = system: UACC-257; assay: Growth inhibition of human UACC-257 cells at 10 uM incubated for 48 hrs by sulforhodamine B assay relative to control; type: functional; details: read-out: GI
[34] = system: HOP-62; assay: Growth inhibition of human HOP-62 cells incubated for 48 hrs by sulforhodamine B assay; type: functional
[35] = Therapeutic index, ratio of LC50 for human Panel NCI-60 (60 carcinoma cell lines) to GI50 for human Panel NCI-60 (60 carcinoma cell lines); type: functional
[36] = system: SR; assay: Growth inhibition of human SR cells incubated for 48 hrs by sulforhodamine B assay; type: functional
[37] = system: MDA-MB-231; assay: Growth inhibition of human MDA-MB-231 cells at 10 uM incubated for 48 hrs by sulforhodamine B assay relative to control; type: functional; details: read-out: GI
[38] = system: HCT-116; assay: Growth inhibition of human HCT-116 cells incubated for 48 hrs by sulforhodamine B assay; type: functional
[39] = system: U-251; assay: Growth inhibition of human U-251 cells incubated for 48 hrs by sulforhodamine B assay; type: functional
[40] = system: SW-620; assay: Growth inhibition of human SW-620 cells incubated for 48 hrs by sulforhodamine B assay; type: functional
[41] = system: HOP-62; assay: Growth inhibition of human HOP-62 cells at 10 uM incubated for 48 hrs by sulforhodamine B assay relative to control; type: functional; details: read-out: GI
[42] = system: UACC-257; assay: Growth inhibition of human UACC-257 cells incubated for 48 hrs by sulforhodamine B assay; type: functional
[43] = system: NCI-H226; assay: Growth inhibition of human NCI-H226 cells at 10 uM incubated for 48 hrs by sulforhodamine B assay relative to control; type: functional; details: read-out: GI
[44] = system: RPMI-8226; assay: Growth inhibition of human RPMI-8226 cells incubated for 48 hrs by sulforhodamine B assay; type: functional; details: dose 10 µM
[45] = system: UO-31; assay: Growth inhibition of human UO-31 cells at 10 uM incubated for 48 hrs by sulforhodamine B assay relative to control; type: functional; details: read-out: GI
[46] = system: IGROV-1; assay: Growth inhibition of human IGROV-1 cells at 10 uM incubated for 48 hrs by sulforhodamine B assay relative to control; type: functional; details: read-out: GI
[47] = system: UO-31; assay: Growth inhibition of human UO-31 cells incubated for 48 hrs by sulforhodamine B assay; type: functional
[48] = system: OVCAR-3; assay: Growth inhibition of human OVCAR-3 cells at 10 uM incubated for 48 hrs by sulforhodamine B assay relative to control; type: functional; details: read-out: GI
[49] = system: U-251; assay: Growth inhibition of human U-251 cells at 10 uM incubated for 48 hrs by sulforhodamine B assay relative to control; type: functional; details: read-out: GI
[50] = system: NCI-H460; assay: Growth inhibition of human NCI-H460 cells incubated for 48 hrs by sulforhodamine B assay; type: functional
[51] = system: SF-295; assay: Growth inhibition of human SF-295 cells at 10 uM incubated for 48 hrs by sulforhodamine B assay relative to control; type: functional; details: read-out: GI
[52] = system: TK-10; assay: Growth inhibition of human TK-10 cells incubated for 48 hrs by sulforhodamine B assay; type: functional
[53] = system: K562; assay: Growth inhibition of human K562 cells incubated for 48 hrs by sulforhodamine B assay; type: functional
[54] = system: OVCAR-5; assay: Growth inhibition of human OVCAR-5 cells at 10 uM incubated for 48 hrs by sulforhodamine B assay relative to control; type: functional; details: read-out: GI
[55] = system: TK-10; assay: Growth inhibition of human TK-10 cells at 10 uM incubated for 48 hrs by sulforhodamine B assay relative to control; type: functional; details: read-out: GI
[56] = system: BV-2; assay: Antiinflammatory activity against mouse BV2 cells assessed as inhibition of LPS-induced TNFalpha production at 1 uM by enzyme immunoassay; type: functional; design: scale not given: the % may be the effect or the level left
[57] = system: Panel NCI-60 (60 carcinoma cell lines); assay: Growth inhibition of human Panel NCI-60 (60 carcinoma cell lines) incubated for 48 hrs by sulforhodamine B assay; type: functional
[58] = system: HOP-92; assay: Growth inhibition of human HOP-92 cells incubated for 48 hrs by sulforhodamine B assay; type: functional
[59] = system: SK-OV-3; assay: Growth inhibition of human SK-OV-3 cells at 10 uM incubated for 48 hrs by sulforhodamine B assay relative to control; type: functional; details: read-out: GI
[60] = system: OVCAR-4; assay: Growth inhibition of human OVCAR-4 cells incubated for 48 hrs by sulforhodamine B assay; type: functional
[61] = read-out: LC50 (the source's name)

O=C1COCCN1c1ccc(NCc2cn(Cc3ccc(Cl)cc3)c3ccccc23)cc1
GI50 [1]: 0.15 µM
CC50 [1, 61]: 3.6 µM
GI50 [2]: 0.1 µM
CC50 [2, 61]: 0.8 µM
inhibition of growth at 10 µM [3]: 94%
inhibition of growth at 10 µM [4]: 89%
Activity [5]: Active
inhibition of growth at 10 µM [6]: 73%
inhibition of growth at 10 µM [7]: 100%
inhibition of growth at 10 µM [8]: 95%
GI50 [9]: 0.39 µM
inhibition of growth at 10 µM [10]: 95%
GI50 [11]: 2.18 µM
GI50 [12]: 1.8 µM
GI50 [13]: 0.29 µM
pIC50 [14]: < 5.00
GI50 [15]: 0.05 µM
CC50 [15, 61]: > 100 µM
GI50 [16]: 0.03 µM
CC50 [16, 61]: 0.4 µM
GI50 [17]: 0.25 µM
GI50 [18]: 0.26 µM
inhibition of growth at 10 µM [19]: 87%
inhibition of growth at 10 µM [20]: 100%
inhibition of growth at 10 µM [21]: 100%
inhibition of growth at 10 µM [22]: 94%
GI50 [23]: 2.29 µM
GI50 [24]: 0.18 µM
CC50 [24, 61]: 9.6 µM
inhibition of growth at 10 µM [25]: 90%
inhibition of growth at 10 µM [26]: 96%
Activity [27]: Active
GI50 [28]: 1.2 µM
inhibition of growth at 10 µM [29]: 100%
inhibition of growth at 10 µM [30]: 93%
GI50 [31]: 4.5 µM
inhibition of growth at 10 µM [32]: 96%
inhibition of growth at 10 µM [33]: 100%
GI50 [34]: 1 µM
TI [35]: 34
GI50 [36]: 3 µM
inhibition of growth at 10 µM [37]: 77%
GI50 [38]: 0.24 µM
GI50 [39]: 1.2 µM
GI50 [40]: 2.2 µM
inhibition of growth at 10 µM [41]: 83%
GI50 [42]: 0.27 µM
inhibition of growth at 10 µM [43]: 93%
GI50 [44]: 2.1 µM
inhibition of growth at 10 µM [45]: 92%
inhibition of growth at 10 µM [46]: 100%
GI50 [47]: 2.08 µM
inhibition of growth at 10 µM [48]: 96%
inhibition of growth at 10 µM [49]: 89%
GI50 [50]: 0.26 µM
inhibition of growth at 10 µM [51]: 85%
GI50 [52]: 0.14 µM
CC50 [52, 61]: > 100 µM
GI50 [53]: 1.8 µM
inhibition of growth at 10 µM [54]: 100%
inhibition of growth at 10 µM [55]: 100%
Activity [56]: 75%
GI50 [57]: 2.09 µM
TGI [57]: 25.1 µM
CC50 [57, 61]: 70.8 µM
GI50 [58]: 1.6 µM
inhibition of growth at 10 µM [59]: 91%
GI50 [60]: 0.48 µM
